Experimental data: patent US7741350B1 (Cara Therapeutics, Inc., priority 2009, dated 2010)
Like-named read-outs stand apart in the source and are kept apart here.

What was measured:
[1] = target: human CB1 receptor (hCB1) (Homo sapiens, UniProt P21554); test: cAMP assay at human CB1 receptor; type: cell-based; details: hCB1R; maximum measurable range 30 μM; read-out: EC50 (Potency at Human CB1 determined by cAMP Assay)
Protocol: The ability of each of the compounds to act as agonists or inverse agonists at human CB2 and CB1 receptors (hCB2, hCB1, respectively) and at the rat CB2 receptor (rCB2) was determined by measuring changes in intracellular cyclic AMP (cAMP) levels as described in U.S. Pat. No. 7,517,874.
TR-FRET was measured using a 330-380 nm excitation filter, 615 nm and 665 nm emission filters, dichroic minor 380 nm and Z=10 mm. cAMP concentrations in each well were back-calculated from a cAMP standard curve run concurrently during each assay. Each plate contained 16 wells of forskolin stimulated cells and 16 wells of forskolin plus 1 μM CP55,940-treated cells. Concentrations of cAMP were expressed as a percent of the difference of these two groups of wells. Concentration-response data including EC50 (the concentration of compound producing 50% of the maximal response) and intrinsic activity (the percent maximal activation compared to full activation by CP55, 940) were determined using a four-parameter non-linear regression algorithm (CambridgeSoft Bioassay).

[2] = target: human CB2 receptor (hCB2) (Homo sapiens, UniProt P34972); test: cAMP assay at human CB2 receptor; type: cell-based; details: hCB2R, maximum measurable range 30 μM
Sequence of human CB2 receptor (hCB2) (P34972 whole entry): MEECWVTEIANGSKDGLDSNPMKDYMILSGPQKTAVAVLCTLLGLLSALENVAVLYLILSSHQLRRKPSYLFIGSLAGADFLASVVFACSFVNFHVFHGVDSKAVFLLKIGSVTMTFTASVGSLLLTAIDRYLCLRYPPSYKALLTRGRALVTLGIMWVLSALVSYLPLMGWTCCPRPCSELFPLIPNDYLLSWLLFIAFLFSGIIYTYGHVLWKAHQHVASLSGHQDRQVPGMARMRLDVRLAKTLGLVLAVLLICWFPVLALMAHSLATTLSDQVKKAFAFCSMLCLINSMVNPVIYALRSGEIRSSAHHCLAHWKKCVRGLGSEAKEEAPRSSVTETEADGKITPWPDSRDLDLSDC
Protocol: TR-FRET was measured using a 330-380 nm excitation filter, 615 nm and 665 nm emission filters, dichroic minor 380 nm and Z=10 mm. cAMP concentrations in each well were back-calculated from a cAMP standard curve run concurrently during each assay. Each plate contained 16 wells of forskolin stimulated cells and 16 wells of forskolin plus 1 μM CP55,940-treated cells. Concentrations of cAMP were expressed as a percent of the difference of these two groups of wells.

[3] = tested on: male Sprague-Dawley rats; test: Anti-hyperalgesia in the Complete Freund's Adjuvant (CFA) model of inflammatory pain; type: in vivo; details: PO dose 3 mg/kg; 1 hr after dosing; thermal hyperalgesia; rat; read-out: % MPE (1 hr), paw withdrawal latency after CFA injection
Protocol: The anti-hyperalgesic effects of test compounds in the Complete Freund's Adjuvant (CFA) model of inflammatory pain were determined essentially as described in U.S. Pat. No. 7,517,874 using male Sprague-Dawley rats (Hsd: Sprague-Dawley®SD®, Harlan, Indianapolis, Ind.) weighing 200-300 grams.
Test compounds were prepared in a Cremaphor vehicle mixture of 1:1:18 CremophorEL:ethanol:water. Cremophor was obtained from Sigma Chemical (St. Louis, Mo.). The vehicle mixture or vehicle mixture plus test compound were each administered orally.
Assessment of thermal hyperalgesia: Baseline and post-treatment paw withdrawal latencies to a noxious thermal stimulus were measured using a plantar test apparatus (Ugo Basile; obtained from Stoelting, Wood Dale, Ill.). This apparatus generates an infrared heat source that is linearly increasing in intensity. To avoid tissue damage, the power to the heat source was cut off after 20 seconds.
Paw withdrawal latency is defined as the time required for the rat to flick its paw away from the thermal stimulus. Ibuprofen (100 mg/kg, p.o.) was used as the positive control. Paw withdrawal latencies (in seconds) were measured before (naïve paw latency, L1) and 24 hr following (CFA-inflamed paw latency, L2) a single intraplantar injection of 0.1 mL CFA (Sigma-Aldrich, cat F5881, Mycobacterium tuberculosis 1 mg/ml).
Test compounds were administered orally 23 hours following CFA injection; i.e., 1 hour prior to thermal assessment (compound treated CFA-inflamed paw latency, L3). The mean paw withdrawal latency and standard error of the mean (SEM) was determined for the injured paws for each treatment group.
Data were expressed as percent maximum […] effect (% MPE) defined as the percentage of restoration of latency of test compound-treated CFA inflamed paw as compared to the naïve paw latency.

[4] = EC50 (Potency at Human CB2 determined by cAMP Assay)
[5] = read-out: EC50 (Potency at Human CB2 determined by cAMP Assay)

Sequence of human CB1 receptor (hCB1) (P21554 whole entry): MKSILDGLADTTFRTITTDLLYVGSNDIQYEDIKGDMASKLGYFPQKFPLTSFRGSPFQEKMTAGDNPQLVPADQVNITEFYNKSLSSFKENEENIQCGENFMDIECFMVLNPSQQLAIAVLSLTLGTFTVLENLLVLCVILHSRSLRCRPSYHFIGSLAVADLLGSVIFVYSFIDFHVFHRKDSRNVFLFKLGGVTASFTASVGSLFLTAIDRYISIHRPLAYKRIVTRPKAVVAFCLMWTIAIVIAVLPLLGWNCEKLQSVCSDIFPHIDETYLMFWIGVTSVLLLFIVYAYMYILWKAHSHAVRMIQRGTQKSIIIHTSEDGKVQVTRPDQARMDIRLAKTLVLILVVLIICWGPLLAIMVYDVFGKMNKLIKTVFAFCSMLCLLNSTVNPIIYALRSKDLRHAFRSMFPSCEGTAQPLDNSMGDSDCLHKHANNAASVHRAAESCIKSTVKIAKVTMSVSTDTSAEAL

SMILES	EC50 [1] [µM]	EC50 [2, 4] [µM]	inhibition in vivo at 3 mg/kg [3] [%]	EC50 [2, 5] [µM]
CN1CCc2c(-c3cc(F)c(F)cc3F)nn(C(=O)N[C@H](C(=O)NCCO)C(C)(C)C)c2C1 [Compound 89, (S)—N-(1-(2-hydroxyethylamino)-3,3-dimethyl-1-oxobutan-2-yl)-6-methyl-3-(2,4,5-trifluorophenyl)-4,5,6,7-tetrahydro-1H-pyrazolo[3,4-c]pyridine-1-carboxamide]	< 1	< 1	52	
CN1CCc2c(c(-c3ccc(F)c(F)c3)nn2C(=O)N[C@H](C(=O)NCCO)C(C)(C)C)C1 [Compound 98, (S)-3-(3,4-difluorophenyl)-N-(1-(2-hydroxyethylamino)-3,3-dimethyl-1-oxobutan-2-yl)-5-methyl-4,5,6,7-tetrahydro-1H-pyrazolo[4,3-c]pyridine-1-carboxamide]	< 1	< 1	36	
CN1CCc2c(-c3cc(F)ccc3F)nn(C(=O)N[C@H](C(=O)NCCO)C(C)(C)C)c2C1 [Compound 93, (S)-3-(2,5-difluorophenyl)-N-(1-(2-hydroxyethylamino)-3,3-dimethyl-1-oxobutan-2-yl)-6-methyl-4,5,6,7-tetrahydro-1H-pyrazolo[3,4-c]pyridine-1-carboxamide]	< 1	< 1	28	
CN1CCc2c(-c3ccc(F)c(F)c3)nn(C(=O)N[C@H](C(=O)NCCO)C(C)(C)C)c2C1 [Compound 90, (S)-3-(3,4-difluorophenyl)-N-(1-(2-hydroxyethylamino)-3,3-dimethyl-1-oxobutan-2-yl)-6-methyl-4,5,6,7-tetrahydro-1H-pyrazolo[3,4-c]pyridine-1-carboxamide]	< 1		25	> 1
CC(C)(C)[C@H](NC(=O)n1nc(-c2cc(Cl)ccc2F)c2c1CCOC2)C(=O)NCCO [Compound 86, (S)-3-(5-chloro-2-fluorophenyl)-N-(1-(2-hydroxyethylamino)-3,3-dimethyl-1-oxobutan-2-yl)-6,7-dihydropyrano[4,3-c]pyrazole-1(4H)-carboxamide]	< 1	< 1	27	
CN1CCCc2c1c(-c1cc(Cl)ccc1F)nn2C(=O)N[C@H](C(=O)NCCO)C(C)(C)C [Compound 94, (S)-3-(5-chloro-2-fluorophenyl)-N-(1-(2-hydroxyethylamino)-3,3-dimethyl-1-oxobutan-2-yl)-4-methyl-4,5,6,7-tetrahydro-1H-pyrazolo[4,3-b]pyridine-1-carboxamide]	< 1	< 1	27	
CNC(=O)[C@@H](NC(=O)n1nc(-c2ccc(F)c(F)c2)c2c1CCCN2CCO)C(C)(C)C [Compound 101, (S)-3-(3,4-difluorophenyl)-N-(3,3-dimethyl-1-(methylamino)-1-oxobutan-2-yl)-4-(2-hydroxyethyl)-4,5,6,7-tetrahydro-1H-pyrazolo[4,3-b]pyridine-1-carboxamide]	< 1		28	< 1
CC(C)(C)[C@H](NC(=O)n1nc(-c2cc(Cl)ccc2F)c2c1COCC2)C(=O)NCCO [Compound 96, (S)-3-(5-chloro-2-fluorophenyl)-N-(1-(2-hydroxyethylamino)-3,3-dimethyl-1-oxobutan-2-yl)-4,5-dihydropyrano[3,4-c]pyrazole-1(7H)-carboxamide]	< 1	< 1	52	
CC(C)(C)[C@H](NC(=O)n1nc(-c2ccc(F)c(F)c2)c2c1CCOC2)C(N)=O [Compound 99, (S)—N-(1-amino-3,3-dimethyl-1-oxobutan-2-yl)-3-(3,4-difluorophenyl)-6,7-dihydropyrano[4,3-c]pyrazole-1(4H)-carboxamide]	< 1		68	> 1
CN1CCc2c(c(-c3cc(F)ccc3F)nn2C(=O)N[C@H](CO)C(C)(C)C)C1 [Compound 66, (S)-3-(2,5-difluorophenyl)-N-(1-hydroxy-3,3-dimethylbutan-2-yl)-5-methyl-4,5,6,7-tetrahydro-1H-pyrazolo[4,3-c]pyridine-1-carboxamide]	< 1			> 1
CNC(=O)[C@@H](NC(=O)n1nc(-c2ccc(F)c(F)c2)c2c1CCC(NC)C2)C(C)(C)C (stereo partly drawn) [Compound 68, 3-(3,4-difluorophenyl)-N—((S)-3,3-dimethyl-1-(methylamino)-1-oxobutan-2-yl)-5-(methylamino)-4,5,6,7-tetrahydro-1H-indazole-1-carboxamide]	< 1	< 1		
CC(C)(C)[C@H](NC(=O)n1nc(-c2cc(F)ccc2F)c2c1CCOC2)C(=O)NCCO [Compound 87, (S)-3-(2,5-difluorophenyl)-N-(1-(2-hydroxyethylamino)-3,3-dimethyl-1-oxobutan-2-yl)-6,7-dihydropyrano[4,3-c]pyrazole-1(4H)-carboxamide]	< 1	< 1	50	
CN1CCc2c(c(-c3cc(F)c(F)cc3F)nn2C(=O)N[C@H](C(=O)NCCO)C(C)(C)C)C1 [Compound 40, (S)—N-(1-(2-hydroxyethylamino)-3,3-dimethyl-1-oxobutan-2-yl)-5-methyl-3-(2,4,5-trifluorophenyl)-4,5,6,7-tetrahydro-1H-pyrazolo[4,3-c]pyridine-1-carboxamide]	< 1	< 1		
CCOC(=O)CN1CCCc2c1c(-c1ccc(F)c(F)c1)nn2C(=O)N[C@H](C(=O)NC)C(C)(C)C [Compound 100, (S)-ethyl 2-(3-(3,4-difluorophenyl)-1-(3,3-dimethyl-1-(methylamino)-1-oxobutan-2-ylcarbamoyl)-6,7-dihydro-1H-pyrazolo[4,3-b]pyridin-4(5H)-yl)acetate]	< 1	< 1		
CN1CCCc2c1c(-c1ccc(F)c(F)c1)nn2C(=O)N[C@H](C(=O)NCCO)C(C)(C)C [Compound 91, (S)-3-(3,4-difluorophenyl)-N-(1-(2-hydroxyethylamino)-3,3-dimethyl-1-oxobutan-2-yl)-4-methyl-4,5,6,7-tetrahydro-1H-pyrazolo[4,3-b]pyridine-1-carboxamide]	< 1		47	< 1
CNC(=O)[C@@H](NC(=O)n1nc(-c2ccc(F)c(F)c2)c2c1CCN(C)C2)C(C)(C)C [Compound 42, (S)-3-(3,4-difluorophenyl)-N-(3,3-dimethyl-1-(methylamino)-1-oxobutan-2-yl)-5-methyl-4,5,6,7-tetrahydro-1H-pyrazolo[4,3-c]pyridine-1-carboxamide]	< 1	< 1		
CNC(=O)[C@@H](NC(=O)n1nc(-c2cc(F)ccc2F)c2c1CCN(C)C2)C(C)(C)C [Compound 64, (S)-3-(2,5-difluorophenyl)-N-(3,3-dimethyl-1-(methylamino)-1-oxobutan-2-yl)-5-methyl-4,5,6,7-tetrahydro-1H-pyrazolo[4,3-c]pyridine-1-carboxamide]	< 1			> 1
CN1CCc2c(c(-c3cc(F)c(F)cc3F)nn2C(=O)N[C@H](C(=O)N2CCC[C@H]2C(N)=O)C(C)(C)C)C1 [Compound 74, N—((S)-1-((S)-2-carbamoylpyrrolidin-1-yl)-3,3-dimethyl-1-oxobutan-2-yl)-5-methyl-3-(2,4,5-trifluorophenyl)-4,5,6,7-tetrahydro-1H-pyrazolo[4,3-c]pyridine-1-carboxamide]	< 1			> 1
